Laboratory results published in patent US8846696B2, “Purine derivatives” (Cyclacel Limited, priority 2002, dated 2014).
Where two headings read alike, the source gives them in different places.

How the values were obtained:
[1] = 10 μM
Experimental: (§3) Calibration curves were prepared at 0, 1, and 10 μM in microsomes pre-incubated for 30 min and these were also treated with methanol containing olomoucine. All samples were then centrifuged and the supernatants analysed by liquid chromatography-mass spectrometry.
(§4) The chromatography column was a Supelco LC-ABZ, 50×4.6 mm, 5 μm zwitterionic column (Supelco Inc., Supelco Park, Bellefonte, Pa., USA). Gradient eluants consisted of methanol (A) and 0.1% formic acid in water (B). […] The flow rate was 1 mL/min throughout. […] Eluant from the detector passed, without splitting, into a Thernoquest LCQ ion trap mass spectrometer fitted with an electrospray source operated in positive mode. Mass spectrometer conditions were sheath gas 80, auxiliary gas 20 (both arbitrary units), capillary voltage 4 to 4.5 kV and heated capillary temperature 250 to 280° C. The mass range was 50-750. Scan time was controlled by the ion trap which was set to a maximum ion injection time of 200 ms or the time required to inject 2×10^8 ions; for each scan the system automatically used whichever time was reached first.
(§5) The peak area ration (test compound/internal standard) of the test incubation was then compared with the peak area ratios obtained fro the calibration curve of the test compound. From these values the concentration of test compound remaining after 30 min microsomal protein incubation was determined.

[2] = target: CDK7/cyclin H (Homo sapiens (Human), UniProt P50613); assay: Kinase assay CDK7/cyclin H; format: biochemical; settings: read-out: Kinase inhibition CDK7/cyclin H IC50
Experimental: Reactions were stopped on ice, followed by filtration through p81 filterplates or GF/C filterplates (for CDK4) (Whatman Polyfiltronics, Kent, UK), except for CDK7 where, after stopping reaction on ice, 10 μL of 10 mg/mL avidin was added to each well and further incubated for 10 min followed by filtration as per CDK2 assay. After washing 3 times with 75 mM aq orthophosphoric acid, plates were dried, scintillant added and incorporated radioactivity measured in a scintillation counter (TopCount, Packard Instruments, Pangbourne, Berks, UK). Compounds for kinase assay were made up as 10 mM stocks in DMSO and diluted into 10% DMSO in assay buffer.

[3] = target: ERK-2 (Homo sapiens (Human), UniProt P28482); assay: Kinase assay ERK-2; settings: read-out: Kinase inhibition ERK2 IC50
Experimental: (§6) Recombinant cyclin D1 was expressed in E. coli. […] Reactions were stopped on ice, followed by filtration through p81 filterplates or GF/C filterplates (for CDK4) (Whatman Polyfiltronics, Kent, UK), except for CDK7 where, after stopping reaction on ice, 10 μL of 10 mg/mL avidin was added to each well and further incubated for 10 min followed by filtration as per CDK2 assay. After washing 3 times with 75 mM aq orthophosphoric acid, plates were dried, scintillant added and incorporated radioactivity measured in a scintillation counter (TopCount, Packard Instruments, Pangbourne, Berks, UK). Compounds for kinase assay were made up as 10 mM stocks in DMSO and diluted into 10% DMSO in assay buffer.

[4] = target: cyclic AMP-dependent kinase (PKA) catalytic subunit (Homo sapiens (Human), UniProt P17612); assay: Kinase assay PKA; settings: read-out: Kinase inhibition PKA IC50
Experimental: as §6

[5] = system: Human tumour cell lines: A549, HT29, Saos-2; assay: 72-h MTT cytotoxicity assay, tumour cell lines A549, HT29, Saos-2; format: cell-based; settings: for IC50: 72 h, read-out: In vitro anti-proliferative activity (72-h MTT IC50), Human tumour cell lines: A549, HT29, Saos-2; for C: IC50 cytotox. roscovitine/IC50 cytotox. compound: ratio to roscovitine
Experimental: (§1) In short: cells were seeded into 96-well plates according to doubling time and incubated overnight at 37° C. Test compounds were made up in DMSO and a ⅓ dilution series prepared in 100 μL cell media, added to cells (in triplicates) and incubated for 72 ho at 37° C. MTT was made up as a stock of 5 mg/mL in cell media and filter-sterilised. Media was removed from cells followed by a wash with 200 μL PBS. MTT solution was then added at 20 μL per well and incubated in the dark at 37° C. for 4 h. MTT solution was removed and cells again washed with 200 μL PBS. MTT dye was solubilised with 200 μL per well of DMSO with agitation.

[6] = target: CDK4/cyclin D1 (Homo sapiens (Human), UniProt P11802); settings: read-out: Kinase inhibition CDK4/cyclin D1 IC50
Experimental: as §6

[7] = target: CDK1/cyclin B (Homo sapiens (Human), UniProt P06493); assay: Kinase assay CDK1/cyclin B; format: biochemical; settings: read-out: Kinase inhibition CDK1/cyclin B IC50
Experimental: as §6

[8] = target: CDK2/cyclin E (Homo sapiens (Human), UniProt P24941); assay: Kinase assay CDK2/cyclin E; format: biochemical; settings: for A × B: comparative in vitro efficacy; for B: IC50 CDK2 roscovitine/IC50 CDK2 compound: ratio to roscovitine; for IC50: read-out: Kinase inhibition CDK2/cyclin E IC50
Experimental: as §6

[9] = system: normal cell lines; assay: 72-h MTT assay, mean of normal cell lines; format: cell-based; settings: Homo sapiens, read-out: 72-h MTT IC50
Experimental: as §1
(§2) Representative compounds of this invention were examined for their anti-proliferative effect against human tumour cell lines and immortalized non-transformed human cell lines (“normal” cell lines).

[10] = system: IMR90; assay: 72-h MTT assay IMR90; format: cell-based; settings: Homo sapiens, IMR-90, 72 h, read-out: 72-h MTT IC50; IMR90, normal embryo lung fibroblast
Experimental: as §1, §2

[11] = system: Saos-2; assay: 72-h MTT assay Saos-2; format: cell-based; settings: Homo sapiens, read-out: 72-h MTT IC50, Saos-2, osteosarcoma
Experimental: as §1, §2

[12] = system: Hs27; assay: 72-h MTT assay Hs27; format: cell-based; settings: Homo sapiens, read-out: 72-h MTT IC50, Hs27, normal foreskin fibroblast
Experimental: as §1, §2

[13] = system: HL-60; assay: 72-h MTT assay HL-60; format: cell-based; settings: Homo sapiens, read-out: 72-h MTT IC50, HL-60, acute promyelocytic leukaemia
Experimental: as §1, §2

[14] = system: MCF7; assay: 72-h MTT assay MCF7; format: cell-based; settings: Homo sapiens, read-out: 72-h MTT IC50, MCF7, mammary adenocarcinoma
Experimental: as §1, §2

[15] = system: cancer cell lines; assay: 72-h MTT assay, mean of cancer cell lines; format: cell-based; settings: Homo sapiens, read-out: 72-h MTT IC50
Experimental: as §1, §2

[16] = system: HT-29; assay: 72-h MTT assay HT-29; format: cell-based; settings: Homo sapiens, read-out: 72-h MTT IC50, HT-29, colorectal adenocarcinoma
Experimental: as §1, §2

[17] = system: HeLa; assay: 72-h MTT assay HeLa; format: cell-based; settings: Homo sapiens, read-out: 72-h MTT IC50, cervical adenocarcinoma
Experimental: as §1, §2

[18] = system: CCRF-CEM; assay: 72-h MTT assay CCRF-CEM; format: cell-based; settings: Homo sapiens, read-out: 72-h MTT IC50, acute lymphoblastic leukaemia
Experimental: as §1, §2

[19] = system: WI38; assay: 72-h MTT assay WI38; format: cell-based; settings: Homo sapiens, WI-38, 72 h, read-out: 72-h MTT IC50; WI38, normal foetal lung fibroblast
Experimental: as §1, §2

[20] = system: A549; assay: 72-h MTT assay A549; format: cell-based; settings: Homo sapiens, read-out: 72-h MTT IC50, A549, lung carcinoma
Experimental: as §1, §2

[21] = system: K-562; assay: 72-h MTT assay K-562; format: cell-based; settings: Homo sapiens, K562, 72 h, read-out: 72-h MTT IC50
Experimental: as §1, §2

[22] = Comparative in vitro metabolism assay (microsomal incubation)
Experimental: as §3, §4, §5

Sequence of CDK4/cyclin D1 (P11802 whole entry): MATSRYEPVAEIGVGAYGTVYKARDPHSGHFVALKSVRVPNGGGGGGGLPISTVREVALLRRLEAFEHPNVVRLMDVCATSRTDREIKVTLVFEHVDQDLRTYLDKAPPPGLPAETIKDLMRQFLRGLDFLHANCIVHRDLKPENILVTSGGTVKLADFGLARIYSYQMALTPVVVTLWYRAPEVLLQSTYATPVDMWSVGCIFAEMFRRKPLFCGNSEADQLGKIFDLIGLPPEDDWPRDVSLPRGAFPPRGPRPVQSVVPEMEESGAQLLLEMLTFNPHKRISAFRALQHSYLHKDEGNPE
Sequence of CDK4/cyclin D1 (P24385 whole entry partner): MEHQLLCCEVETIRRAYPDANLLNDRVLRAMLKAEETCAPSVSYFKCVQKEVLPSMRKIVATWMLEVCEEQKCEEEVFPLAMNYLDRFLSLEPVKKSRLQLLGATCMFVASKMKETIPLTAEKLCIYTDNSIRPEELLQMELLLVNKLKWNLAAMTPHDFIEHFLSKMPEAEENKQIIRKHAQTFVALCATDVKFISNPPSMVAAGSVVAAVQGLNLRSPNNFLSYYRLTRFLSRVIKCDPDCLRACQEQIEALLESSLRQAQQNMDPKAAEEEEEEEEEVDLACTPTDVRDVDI
Sequence of ERK-2 (P28482 whole entry, species assumed): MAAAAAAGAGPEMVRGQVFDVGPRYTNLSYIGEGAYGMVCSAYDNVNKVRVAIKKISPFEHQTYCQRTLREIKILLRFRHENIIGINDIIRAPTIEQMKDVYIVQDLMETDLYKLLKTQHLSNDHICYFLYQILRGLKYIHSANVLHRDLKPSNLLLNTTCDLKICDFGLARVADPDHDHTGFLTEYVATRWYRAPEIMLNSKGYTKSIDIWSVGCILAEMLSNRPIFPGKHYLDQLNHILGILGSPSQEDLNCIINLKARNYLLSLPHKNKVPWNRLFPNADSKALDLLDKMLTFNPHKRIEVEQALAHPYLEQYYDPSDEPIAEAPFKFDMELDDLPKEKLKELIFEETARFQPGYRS
Sequence of CDK1/cyclin B (P06493 whole entry): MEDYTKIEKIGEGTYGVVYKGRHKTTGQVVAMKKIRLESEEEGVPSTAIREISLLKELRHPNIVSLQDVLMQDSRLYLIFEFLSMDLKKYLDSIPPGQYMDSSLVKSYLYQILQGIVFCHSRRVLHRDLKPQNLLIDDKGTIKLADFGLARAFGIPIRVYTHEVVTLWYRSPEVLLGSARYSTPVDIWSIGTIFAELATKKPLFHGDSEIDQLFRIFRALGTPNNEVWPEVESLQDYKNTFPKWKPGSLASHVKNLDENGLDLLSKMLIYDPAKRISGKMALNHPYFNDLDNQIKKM
Sequence of CDK1/cyclin B (P14635 whole entry partner): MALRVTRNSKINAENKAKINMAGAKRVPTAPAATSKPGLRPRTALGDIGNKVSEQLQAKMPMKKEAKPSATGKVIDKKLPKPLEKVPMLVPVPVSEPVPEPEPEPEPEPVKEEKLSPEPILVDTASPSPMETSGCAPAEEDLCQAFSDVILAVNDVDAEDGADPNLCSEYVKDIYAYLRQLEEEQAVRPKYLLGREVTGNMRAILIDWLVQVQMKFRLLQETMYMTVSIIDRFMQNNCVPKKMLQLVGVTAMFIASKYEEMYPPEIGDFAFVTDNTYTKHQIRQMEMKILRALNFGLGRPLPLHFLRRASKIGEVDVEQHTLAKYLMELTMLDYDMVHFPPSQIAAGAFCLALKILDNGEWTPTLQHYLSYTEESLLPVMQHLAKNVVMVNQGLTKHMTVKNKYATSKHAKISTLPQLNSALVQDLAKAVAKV
Sequence of CDK7/cyclin H (P50613 whole entry): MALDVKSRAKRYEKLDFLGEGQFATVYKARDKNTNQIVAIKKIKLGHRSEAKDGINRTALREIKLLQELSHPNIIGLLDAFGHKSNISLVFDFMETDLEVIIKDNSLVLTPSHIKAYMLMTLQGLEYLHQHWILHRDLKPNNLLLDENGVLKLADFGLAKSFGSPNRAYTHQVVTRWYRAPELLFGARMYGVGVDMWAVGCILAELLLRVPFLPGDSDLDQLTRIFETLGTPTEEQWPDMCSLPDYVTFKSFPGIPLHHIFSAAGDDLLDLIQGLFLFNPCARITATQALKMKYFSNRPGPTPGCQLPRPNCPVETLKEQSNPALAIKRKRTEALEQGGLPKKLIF
Sequence of CDK7/cyclin H (P51946 whole entry partner): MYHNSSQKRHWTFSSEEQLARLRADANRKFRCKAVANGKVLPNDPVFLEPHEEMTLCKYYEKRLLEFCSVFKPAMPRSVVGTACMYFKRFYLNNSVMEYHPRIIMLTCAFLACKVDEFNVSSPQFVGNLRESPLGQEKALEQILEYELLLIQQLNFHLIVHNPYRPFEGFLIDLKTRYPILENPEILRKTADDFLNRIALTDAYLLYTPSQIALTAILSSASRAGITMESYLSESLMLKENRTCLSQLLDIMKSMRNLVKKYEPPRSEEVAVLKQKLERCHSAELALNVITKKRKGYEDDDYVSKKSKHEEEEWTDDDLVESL

SMILES	% Drug after 30 min. microsomal incubation [1]	IC50 [2]	IC50 [3]	IC50 [4]	IC50 [6]	IC50 [7]	A × B [8]	B: IC50 CDK2 roscovitine/IC50 CDK2 compound [8]	IC50 [8]	IC50 [5]	C: IC50 cytotox. roscovitine/IC50 cytotox. compound [5]	also measured
CC[C@H](CO)Nc1nc(NCc2ccccc2)c2ncn(C(C)C)c2n1 [Roscovitine, roscovitine]	–	–	–	–	–	–	–	–	–	–	–	% Drug after 30 min. microsomal incubation ([22]; 10 μM compound, 30 min, microsomal protein 0.2 mg, NADPH): 33%; A: % Compound remaining/% roscovitine remaining ([22]; ratio to roscovitine): 1.0
CC[C@H](Nc1nc(NCc2cccnc2)c2ncn(C(C)C)c2n1)C(O)C(C)C (mixture of isomers) [(3RS,4S)-4-{9-Isopropyl-6-[(pyridin-3-ylmethyl)-amino]-9H-purin-2-ylamino}-2-methyl-hexan-3-ol]	–	3500 nM	67 µM	> 200 µM	31 µM	22 µM	–	–	1100 nM	19 µM	–	–
CC[C@@H](Nc1nc(NCc2cccnc2)c2ncn(C(C)C)c2n1)C(C)(C)O [(3R)-3-{9-Isopropyl-6-[(pyridin-3-ylmethyl)-amino]-9H-purin-2-ylamino}-2-methyl-pentan-2-ol]	84%	3100 nM	91 µM	> 200 µM	7.5 µM	6.2 µM	1.3	0.5	200 nM	5.6 µM	2.1	–
CCC(O)[C@@H](CC)Nc1nc(NCc2cccnc2)c2ncn(C(C)C)c2n1 (mixture of isomers) [(3RS,4R)-4-{9-Isopropyl-6-[(pyridin-3-ylmethyl)-amino]-9H-purin-2-ylamino}-hexan-3-ol]	70%	1100 nM	37 µM	> 200 µM	25 µM	12 µM	1.0	0.5	220 nM	10 µM	1.1	–
CC[C@@H](Nc1nc(NCc2cccnc2)c2ncn(C(C)C)c2n1)C(O)C(C)(C)C (mixture of isomers) [(3RS,4R)-4-{9-Isopropyl-6-[(pyridin-3-ylmethyl)-amino]-9H-purin-2-ylamino}-2,2-dimethyl-hexan-3-ol]	–	1600 nM	51 µM	> 200 µM	24 µM	23 µM	–	–	1000 nM	19 µM	–	–
CC[C@@H](Nc1nc(NCc2cccnc2)c2ncn(C(C)C)c2n1)C(O)C(C)C (mixture of isomers) [(3RS,4R)-4-{9-Isopropyl-6-[(pyridin-3-ylmethyl)-amino]-9H-purin-2-ylamino}-2-methyl-hexan-3-ol]	–	2200 nM	111 µM	200 µM	21 µM	20 µM	–	–	690 nM	28 µM	–	–

Continued, in another order:

% Drug after 30 min. microsomal incubation [1]	IC50 [2]	IC50 [3]	IC50 [4]	IC50 [6]	IC50 [7]	A × B [8]	B: IC50 CDK2 roscovitine/IC50 CDK2 compound [8]	IC50 [8]	SMILES	IC50 [5]	C: IC50 cytotox. roscovitine/IC50 cytotox. compound [5]	also measured
50%	3500 nM	23 µM	> 200 µM	13 µM	21 µM	0.4	0.3	390 nM	CC[C@H](Nc1nc(NCc2cccnc2)c2ncn(C(C)C)c2n1)C(O)C(C)(C)C (mixture of isomers) [(3RS,4S)-4-{9-Isopropyl-6-[(pyridin-3-ylmethyl)-amino]-9H-purin-2-ylamino}-2,2-dimethyl-hexan-3-ol]	15 µM	0.8	–
78%	2500 nM	35 µM	> 200 µM	12 µM	4.4 µM	3.2	1.4	70 nM	CC[C@H](Nc1nc(NCc2cccnc2)c2ncn(C(C)C)c2n1)C(C)(C)O [(3S)-3-{9-Isopropyl-6-[(pyridin-3-ylmethyl)-amino]-9H-purin-2-ylamino}-2-methyl-pentan-2-ol]	4 µM	2.9	IC50 [9]: > 10 µM; IC50 [10]: > 20 µM; IC50 [11]: 3900 ± 800 nM; IC50 [12]: 11.3 ± 0.7 µM; IC50 [13]: 3000 ± 200 nM; IC50 [14]: 2300 ± 300 nM; IC50 [15]: 4000 ± 2000 nM; IC50 [16]: 2300 ± 900 nM; IC50 [17]: 4700 ± 500 nM; IC50 [18]: 3.7 ± 0.3 µM; IC50 [19]: > 20 µM; IC50 [20]: 3600 ± 200 nM; IC50 [21]: 8.4 ± 1.2 µM
73%	1500 nM	17 µM	> 200 µM	11 µM	13 µM	2.1	1.0	110 nM	CCC(O)[C@H](CC)Nc1nc(NCc2cccnc2)c2ncn(C(C)C)c2n1 (mixture of isomers) [(3RS,4S)-4-{9-Isopropyl-6-[(pyridin-3-ylmethyl)-amino]-9H-purin-2-ylamino}-hexan-3-ol]	5.5 µM	2.1	–
90%	–	23 µM	> 200 µM	–	4.9 µM	3.1	–	–	CC[C@@H](Nc1nc(NCc2cccnc2)c2ncn(C(C)C)c2n1)[C@H](C)O [(2S3R)-3-{9-Isopropyl-6-[(pyridin-3-ylmethyl)-amino]-9H-purin-2-ylamino}-pentan-2-ol]	1.5 µM	–	IC50 [9]: > 10 µM; IC50 [10]: > 20 µM; IC50 [11]: 2800 ± 100 nM; IC50 [12]: 10.2 ± 0.6 µM; IC50 [14]: 1600 ± 200 nM; IC50 [15]: 2300 ± 500 nM; IC50 [16]: 2300 ± 600 nM; IC50 [17]: 2900 ± 200 nM; IC50 [19]: 11.2 ± 1.2 µM; IC50 [20]: 2100 ± 400 nM
67%	–	20 µM	> 200 µM	–	2.2 µM	7.5	–	–	CC[C@H](Nc1nc(NCc2cccnc2)c2ncn(C(C)C)c2n1)[C@@H](C)O [(2R3S)-3-{9-Isopropyl-6-[(pyridin-3-ylmethyl)-amino]-9H-purin-2-ylamino}-pentan-2-ol]	0.8 µM	–	IC50 [9]: > 10 µM; IC50 [10]: > 20 µM; IC50 [11]: 1200 ± 200 nM; IC50 [12]: 5.9 ± 0.3 µM; IC50 [14]: 700 ± 100 nM; IC50 [15]: 1100 ± 300 nM; IC50 [16]: 1100 ± 200 nM; IC50 [17]: 1400 ± 200 nM; IC50 [19]: 6.1 ± 0.3 µM; IC50 [20]: 900 ± 100 nM
